Assay results published in US12030908B2, “Antimicrobial compounds, compositions, and uses thereof” (Lakewood Amedex, Inc., priority 2017, dated 2024).
Like-named read-outs stand apart in the source and are kept apart here.

Tested on: methicillin resistant Staphylococcus aureus (USA300)
Format: in vivo, SKH-1 hairless mice
Conditions: for decrease in CFU burden: 6 hours post challenge
Method: SKH-1 hairless mice have the outer layer of skin cells removed by stripping with 7 applications and removals of surgical tape. Immediately following tape stripping, mice receive a topical inoculation of methicillin resistant Staphylococcus aureus (USA300) at a targeted challenge of 6.0 log10 CFU. Four hours following challenge, mice are treated with test articles or vehicle controls, and at two hours following treatment, mice have skin harvested for CFU burden enumeration.
SKH-1 mice are obtained from Charles River Laboratories. The age of the mice on Day 0 is approximately 6-8 weeks. Only female mice are selected for the study. Animals are handled in accordance with AUP number TP-18. Mice are housed in solid-bottom micro-isolator cages on stainless steel racks. Animals are fed irradiated Teklad Global 2918 Rodent Diet and water ad libitum. Bedding is provided in the form of irradiated Teklad ⅛″ corn cob bedding 7902. Animals are maintained in a bioBubble® Clean Room which provides H.E.P.A filtered air into the bubble environment at 100 complete air changes per hour. The environment is controlled to a temperature range of 74°±5° F. and a humidity range of 30-70%. Fluorescent lighting provides illumination for 12 hours per day. Mice are acclimated for a minimum of 24 hours prior to study start. The animals are observed for general health and acceptability for use in this study. Only animals deemed healthy are included in this study.
On Day 0 immediately prior to infection, each mouse is anesthetized using isoflurane and the dorsal area receives 7 applications and removals of Nexcare™ (3M) surgical tape in order to remove the outermost epidermal layer of skin.
The challenge microorganism is prepared. Methicillin resistant Staphylococcus aureus (USA300) is grown overnight at 37° C. at ambient atmosphere trypticase soy agar plates supplemented with 5% sheep blood cells. The culture is aseptically swabbed and transferred to tubes sterile water until optical density reaches approximately 0.75 at 600 nm. The cultures are diluted to provide challenge inoculate of 6.0 log10 CFU per mouse in a volume of 100 μL. Inoculum count is estimated before inoculation by optical density and confirmed after inoculation by dilution and back count.
On Day 0 at 0 hours, animals are anesthetized using isoflurane, brought to a surgical plane, and infected with bacteria via topical application, spread in the tape stripped area of approximately 0.75″×0.75″. Challenge is allowed to dry slightly before mice are brought out of anesthesia.
The test articles are prepared in a manner to minimize endotoxin and bacterial contamination. A 10% (100 mg/mL) solution of Nu-8 is prepared in 0.9% sterile saline. A 20% Nu-8 solution for 50/50 mixture in a hydrogel vehicle (for 10% final Nu-8 concentration) is made using sterile water. Citric acid is used to adjust the solutions to pH 3.5. The test articles are stored at 4° C.
A 0.9% sterile saline adjusted to pH 3.5 with citric acid is prepared as a vehicle/negative control and stored at room temperature. A hydrogel vehicle adjusted to pH 3.5 with citric acid is prepared as another vehicle/negative control. The hydrogel vehicle is prepared by mixing equal volumes of hydrogel and 0.9% sterile saline with final pH of the mixture adjusted to pH 3.5.
At exactly four hours following challenge, mice in Groups 2-5 receive a topical application of Nu-8 (in either saline or hydrogel vehicle), saline vehicle, or gel vehicle, in a volume of […] spread on the dorsal area previously stripped and inoculated with bacteria. […] Mice are housed individually following treatment until harvest time.
Mice are observed at least twice daily during the study period and are randomly assigned to experimental groups as shown in TABLE 10. At the time indicated in TABLE 10, mice are humanely euthanized via CO2 overexposure. Mice are harvested at 6 hours post challenge (2 hours post-treatment). […]

## CCCCOP(=O)(O)OC[C@H]1O[C@@H](n2ccc(N)nc2=O)C[C@@H]1OP(=O)(O)OCCCC [Nu-8, sodium ((2R,3S,5R)-5-(4-amino-2-oxopyrimidin-1(2H)-yl)-3-((butoxyoxidophosphor-yl)oxy)tetrahydrofuran-2-yl)methyl butyl phosphate]
10% Nu-8 in hydrogel pH 3.5, topical
  decrease in CFU burden: ~1.0 log10 reduction
10% Nu-8 in saline pH 3.5, topical
  decrease in CFU burden: ~1.0 log10 reduction
Nu-8 gel
  percentage reduction compared to the controls (FIG. 3): 87%
Nu-8 hydrogel, two hours post treatment
  colony forming units (FIG. 1): approximately 40,000 CFU per square millimeter
Nu-8 in saline or hydrogel, two hours post treatment
  reduction in bacteria vs saline and gel controls: ten-fold
Nu-8 in saline, two hours post treatment
  colony forming units (FIG. 1): approximately 30,000 CFU per square millimeter
Nu-8 saline
  percentage reduction compared to the controls (FIG. 3): 90%
topical, 10% Nu-8 in saline or hydrogel
  acute adverse events associated with the treatments: None of the study subjects displayed any acute adverse events
